Results on twelve compounds are retold here after patent US8278316B2, “Aza pyridone analogs useful as melanin concentrating hormone receptor-1 antagonists” (Bristol-Myers Squibb Company, priority 2009, dated 2012).

The structures appear in SMILES notation.

For the test, the target named is T1, human melanin concentrating hormone receptor (MCHR1) (Homo sapiens, UniProt Q99705, A5T/E4Q).
T1 construct: expressed in transfected cells; host or cells: HEK-293 (stably transfected), membranes
T1 sequence (Q99705 whole entry E4Q/A5T): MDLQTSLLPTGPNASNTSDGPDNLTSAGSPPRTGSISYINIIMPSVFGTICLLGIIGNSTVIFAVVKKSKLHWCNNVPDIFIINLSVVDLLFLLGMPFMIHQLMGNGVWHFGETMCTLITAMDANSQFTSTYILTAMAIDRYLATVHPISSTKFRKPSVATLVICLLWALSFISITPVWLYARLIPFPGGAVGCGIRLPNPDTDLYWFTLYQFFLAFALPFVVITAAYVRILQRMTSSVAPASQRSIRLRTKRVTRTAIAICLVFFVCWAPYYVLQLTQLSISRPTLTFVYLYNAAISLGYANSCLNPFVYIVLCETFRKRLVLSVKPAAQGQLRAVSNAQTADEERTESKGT
As to the kind of experiment: Radioligand binding assay for assessment of MCHR1 activity. The note with it: membranes from HEK-293 cells expressing mutated (E4Q, AST) hMCHR1; competition with 0.06-0.1 nM [Phe13,[125I]Tyr19]-MCH, 90 min. Here is the method:
Compounds of Formula I were initially characterized in an in vitro binding assay to determine their Ki or ability to antagonize binding of a peptide agonist to the human melanin concentrating hormone receptor (MCHR1).
Membranes from stably transfected HEK-293 cells expressing a mutated (E4Q, AST) hMCHR1 receptor were prepared by dounce homogenization and differential centrifugation. Binding experiments were carried out with 0.5-1.0 ug of membrane protein incubated in a total of 0.2 ml in 25 mM HEPES (pH 7.4) with 10 mM MgCl2, 2 mM EGTA, and 0.1% BSA (Binding Buffer) for 90 min. For competition binding assays, reactions were carried out in the presence of with 0.06-0.1 nM [Phe^13, [^125I]Tyr^19]-MCH and increasing concentrations of unlabeled test molecules. Reactions were terminated by rapid vacuum filtration over 96 well-GFC Unifilter plates pre-coated with 0.075 ml binding buffer containing 1% BSA, and washed 3 times with 0.4 ml of Phospho-buffered Saline (pH 7.4) containing 0.01% TX-100. Filters were dried; 0.05 ml microscint 20 was added to each well and radioactivity was subsequently quantified by scintillation counting on a TOPCOUNT® microplate scintillation counter (Packard). Inhibitory constants were determined by nonlinear least squares analysis using a four parameter logistic equation.
By Ki is commonly meant a dissociation constant, usually derived from enzyme kinetics or from competition with a known ligand. The compound `COc1cc(-n2cnc(CSc3ccc(F)cc3)cc2=O)ccc1OCC(C)(C)O` [Example G3] yielded a Ki of 378 nM.

For `COc1cc(-n2cnc(SCc3ccc(Cl)cc3)cc2=O)ccc1OCC(O)C1CC1` (stereo not drawn) [Example H6], the Ki is 11 nM.

Take `COc1cc(-n2cnc(OCc3ccc(Cl)cc3)cc2=O)ccc1OCC(C)(C)O` [Example H1, 6-(4-Chlorobenzyloxy)-3-(4-(2-hydroxy-2-methylpropoxy)-3-methoxyphenyl)pyrimidin-4(3H)-one]: affinity was put at a Ki of 35 nM.

For `COc1cc(-n2ccc(C#Cc3ccccc3)nc2=O)ccc1OCC(C)(C)O` [Example B1, 1-(4-(2-Hydroxy-2-methylpropoxy)-3-methoxyphenyl)-4-(phenylethynyl)pyrimidin-2(1H)-one], the Ki was 39 nM.

`COc1cc(-n2ccc(COc3ccccc3F)nc2=O)ccc1OCC(C)(C)O` [Example C5]: the Ki was determined as 2200 nM.

In the case of `COc1cc(-n2ccc(OCc3ccc(Cl)c(Cl)c3)nc2=O)ccc1OCC(C)(C)O` [Example A13], affinity was put at a Ki of 1150 nM.

The compound `COc1cc(-n2ccc(SCc3ccc(Cl)cc3)nc2=O)ccc1OCC(C)(C)O` [Example A1, 4-(4-Chlorobenzylthio)-1-(4-(2-hydroxy-2-methylpropoxy)-3-methoxyphenyl)pyrimidin-2(1H)-one] displayed an inhibition constant Ki of 41 nM.

`COc1cc(-n2cnc(/C=C/c3ccc(Cl)cc3)cc2=O)ccc1OCC(C)(C)O` [Example J1, (E)-6-(4-Chlorostyryl)-3-(4-(2-hydroxy-2-methylpropoxy)-3-methoxyphenyl)pyrimidin-4(3H)-one] registered a Ki of 23 nM.

In the case of `COc1cc(-n2ncc(C#Cc3ccccc3)cc2=O)ccc1OCC(O)C1CC1` (stereo not drawn) [Example D2], the Ki was 37 nM.

Regarding `COc1cc(-n2cnc(SCc3ccc(Cl)cc3)cc2=O)ccc1OCC(C)(C)O` [Example H2], the Ki is 7 nM.

For `Cc1cc(-n2ccc(NCc3ccc(Cl)cc3)nc2=O)ccc1OCC(C)(C)O` [Example A17], the Ki is 458 nM.

As for `COc1cc(-n2ncc(CSc3ccc(Cl)cc3)cc2=O)ccc1OCC(C)(C)O` [Example E1, 5-((4-Chlorophenylthio)methyl)-2-(4-(2-hydroxy-2-methylpropoxy)-3-methoxyphenyl)pyridazin-3(2H)-one], the affinity corresponds to a Ki of 1060 nM.
